Source: patent US9951065B2 (Gilead Sciences, Inc., priority 2015, dated 2018)

Target: T1, IDO1 (Homo sapiens, UniProt P14902)
T1 construct: HeLa cells were treated with a test compound in the presence of IFNγ, which induces IDO1 expression; host or cells: H1-HeLa cells, IDO1 induced with IFNγ
Test: Cell-based (HeLa) assay for measurement of IDO1 inhibition (kynurenine levels in supernatant after IFNγ induction)
Details: HeLa cells, geometric mean of a minimum of four determinations
In short: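 HeLa cells, 1,250 per well, treated with compound (0.5% DMSO final) plus IFNγ to induce IDO1, for 48 h. Supernatant kynurenine measured by TCA hydrolysis at 60 °C, then p-dimethylaminobenzaldehyde, absorbance 480 nm. EC50 from a four-parameter fit normalized to −/+IFNγ controls; geometric mean of at least four runs.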

[1] = IFNγ-induced IDO1, kynurenine in supernatant after 48 hour incubation
[2] = IFNγ-induced IDO1, kynurenine in supernatant, 48 hour incubation

T1 sequence (P14902 whole entry): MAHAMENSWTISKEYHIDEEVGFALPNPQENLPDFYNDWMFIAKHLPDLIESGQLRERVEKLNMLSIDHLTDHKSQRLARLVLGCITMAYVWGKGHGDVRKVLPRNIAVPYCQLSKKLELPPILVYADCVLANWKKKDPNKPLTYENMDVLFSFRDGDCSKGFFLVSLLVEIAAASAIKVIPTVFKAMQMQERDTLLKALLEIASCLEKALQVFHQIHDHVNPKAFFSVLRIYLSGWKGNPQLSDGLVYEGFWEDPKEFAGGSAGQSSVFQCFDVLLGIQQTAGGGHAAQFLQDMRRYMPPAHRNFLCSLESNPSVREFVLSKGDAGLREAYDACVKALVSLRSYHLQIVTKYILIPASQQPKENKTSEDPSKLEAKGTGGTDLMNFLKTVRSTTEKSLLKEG

Row | Structure (SMILES) | EC50 [1] | EC50 [2]
1 | O/N=C(\Nc1ccc(F)c(Cl)c1)c1ccnc2nc(NCCN3CCCC(F)C3)[nH]c12 (stereo not drawn) [Example 237, N-(3-chloro-4-fluorophenyl)-2-((2-(3-fluoropiperidin-1-yl)ethyl)amino)-N′-hydroxy-1H-imidazo[4,5-b]pyridine-7-carboximidamide] | 442 nM | –
2 | OCc1nc2c(/C(=N/O)Nc3ccc(F)c(C(F)(F)F)c3)ccnc2[nH]1 [Example 171, N-(4-Fluoro-3-(trifluoromethyl)phenyl)-N′-hydroxy-2-(hydroxymethyl)-3H-imidazo[4,5-b]pyridine-7-carboximidamide] | 4000 nM | –
3 | CN1Cc2ccccc2C(Nc2nc3c(F)c(F)cc(/C(=N/O)Nc4ccc(F)c(Cl)c4)c3[nH]2)C1 (stereo not drawn) [Example 475, N-(3-chloro-4-fluorophenyl)-4,5-difluoro-N′-hydroxy-2-((2-methyl-1,2,3,4-tetrahydroisoquinolin-4-yl)amino)-1H-benzo[d]imidazole-7-carboximidamide] | – | 1990 nM
4 | CCN(CC)CCNc1nc2c(F)c(F)cc(/C(=N/O)Nc3ccc(F)c(Cl)c3)c2[nH]1 [Example 42, N-(3-Chloro-4-fluorophenyl)-2-((2-(diethylamino)ethyl)amino)-4,5-difluoro-N′-hydroxy-1H-benzo[d]imidazole-7-carboximidamide] | 247 nM | –
5 | O/N=C(\Nc1cc(Cl)ccc1Cl)c1ccnc2nc[nH]c12 [Example 76, N-(2,5-Dichlorophenyl)-N′-hydroxy-1H-imidazo[4,5-b]pyridine-7-carboximidamide] | 769 nM | –
6 | ON=C(Nc1ccc(F)c(Cl)c1)c1cc(F)c(F)c2nc(Cl)[nH]c12 [Example 346, 2-chloro-N-(3-chloro-4-fluorophenyl)-4,5-difluoro-N′-hydroxy-1H-benzo[d]imidazole-7-carboximidamide] | – | 8470 nM
7 | O/N=C(\Nc1ccc(F)c(Cl)c1)c1cc(F)c(F)c2nc(NCc3ccccn3)[nH]c12 [Example 342, N-(3-chloro-4-fluorophenyl)-4,5-difluoro-N′-hydroxy-2-((pyridin-2-ylmethyl)amino)-1H-benzo[d]imidazole-7-carboximidamide] | – | 8490 nM
8 | O/N=C(\Nc1cc(Cl)c(F)c(Cl)c1)c1ccnc2nc[nH]c12 [Example 63, N-(3,5-Dichloro-4-fluorophenyl)-N′-hydroxy-1H-imidazo[4,5-b]pyridine-7-carboximidamide] | 774 nM | –
9 | CN(CCc1nc2nccc(/C(=N/O)Nc3ccc(F)c(Cl)c3)c2[nH]1)CC1COCCO1 (stereo not drawn) [Example 400, 2-(2-(((1,4-dioxan-2-yl)methyl)(methyl)amino)ethyl)-N-(3-chloro-4-fluorophenyl)-N′-hydroxy-1H-imidazo[4,5-b]pyridine-7-carboximidamide] | – | 2810 nM
10 | CC#Cc1cc(N/C(=N\O)c2ccnc3nc[nH]c23)ccc1F [Example 84, N-(4-Fluoro-3-(prop-1-yn-1-yl)phenyl)-N′-hydroxy-1H-imidazo[4,5-b]pyridine-7-carboximidamide] | 445 nM | –
11 | Nc1nc2c(F)ccc(/C(=N/O)Nc3ccc(F)c(Br)c3)c2[nH]1 [Example 19, 2-Amino-N-(3-bromo-4-fluorophenyl)-4-fluoro-N′-hydroxy-1H-benzo[d]imidazole-7-carboximidamide] | 456 nM | –
12 | O/N=C(\Nc1ccc(F)c(Cl)c1)c1cc(F)c(F)c2nc(NCCN3CC[C@H](O)C3)[nH]c12 [Example 452, (S)—N-(3-chloro-4-fluorophenyl)-4,5-difluoro-N′-hydroxy-2-((2-(3-hydroxypyrrolidin-1-yl)ethyl)amino)-1H-benzo[d]imidazole-7-carboximidamide] | – | 568 nM
13 | O/N=C(\Nc1cccc(Cl)c1)c1ccnc2nc(CCN3CCCCC3)[nH]c12 [Example 271, N-(3-chlorophenyl)-N′-hydroxy-2-(2-(piperidin-1-yl)ethyl)-1H-imidazo[4,5-b]pyridine-7-carboximidamide] | 602 nM | –
14 | COCCN(CCNc1nc2nccc(/C(=N/O)Nc3ccc(F)c(Cl)c3)c2[nH]1)C1CC1 [Example 232, N-(3-chloro-4-fluorophenyl)-2-((2-(cyclopropyl(2-methoxyethyl)amino)ethyl)amino)-N′-hydroxy-1H-imidazo[4,5-b]pyridine-7-carboximidamide] | 460 nM | –
15 | O/N=C(\Nc1ccc(F)c(Cl)c1)c1ccnc2nc(NC3CCC3)[nH]c12 [Example 164, N-(3-Chloro-4-fluorophenyl)-2-(cyclobutylamino)-N′-hydroxy-1H-imidazo[4,5-b]pyridine-7-carboximidamide] | 798 nM | –
16 | O/N=C(\Nc1ccc(F)c(Cl)c1)c1ccnc2nc(C3CCCN3)[nH]c12 (stereo not drawn) [Example 152, N-(3-Chloro-4-fluorophenyl)-N′-hydroxy-2-(pyrrolidin-2-yl)-1H-imidazo[4,5-b]pyridine-7-carboximidamide] | 4040 nM | –
17 | CCc1cccc(N/C(=N\O)c2ccnc3nc[nH]c23)c1 [Example 96, N-(3-Ethylphenyl)-N′-hydroxy-1H-imidazo[4,5-b]pyridine-7-carboximidamide] | 803 nM | –
18 | CN(C)[C@H]1CCC[C@H](Nc2nc3c(F)c(F)cc(/C(=N/O)Nc4ccc(F)c(Cl)c4)c3[nH]2)C1 [Example 439, N-(3-chloro-4-fluorophenyl)-2-(((1S,3S)-3-(dimethylamino)cyclohexyl)amino)-4,5-difluoro-N′-hydroxy-1H-benzo[d]imidazole-7-carboximidamide] | – | 6800 nM
19 | CN(CCc1nc2nccc(/C(=N/O)Nc3ccc(F)c(Cl)c3)c2[nH]1)CC1CC1 [Example 186, N-(3-Chloro-4-fluorophenyl)-2-(2-((cyclopropylmethyl)(methyl)amino)ethyl)-N′-hydroxy-1H-imidazo[4,5-b]pyridine-7-carboximidamide] | 565 nM | –
20 | O/N=C(\Nc1ccc(F)c(Cl)c1)c1ccnc2nc(NCC(F)(F)F)[nH]c12 [Example 157, N-(3-Chloro-4-fluorophenyl)-N′-hydroxy-2-((2,2,2-trifluoroethyl)amino)-1H-imidazo[4,5-b]pyridine-7-carboximidamide] | 1090 nM | –
21 | CN(CCNc1nc2c(F)c(F)cc(/C(=N/O)Nc3ccc(F)c(Cl)c3)c2[nH]1)CC1CC1 [Example 398, N-(3-chloro-4-fluorophenyl)-2-((2-((cyclopropylmethyl)(methyl)amino)ethyl)amino)-4,5-difluoro-N′-hydroxy-1H-benzo[d]imidazole-7-carboximidamide] | – | 555 nM
22 | CC1(C)CNC1CNc1nc2c(F)c(F)cc(/C(=N/O)Nc3ccc(F)c(Cl)c3)c2[nH]1 (stereo not drawn) [Example 472, N-(3-chloro-4-fluorophenyl)-2-(((3,3-dimethylazetidin-2-yl)methyl)amino)-4,5-difluoro-N′-hydroxy-1H-benzo[d]imidazole-7-carboximidamide] | – | 2450 nM
23 | CCC#Cc1cc(N/C(=N\O)c2ccnc3nc[nH]c23)ccc1F [Example 78, N-(3-(But-1-yn-1-yl)-4-fluorophenyl)-N′-hydroxy-1H-imidazo[4,5-b]pyridine-7-carboximidamide] | 2640 nM | –
24 | O/N=C(\Nc1ccc(F)c(Cl)c1)c1ccnc2nc(NCC3CC3)[nH]c12 [Example 161, N-(3-Chloro-4-fluorophenyl)-2-((cyclopropylmethyl)amino)-N′-hydroxy-1H-imidazo[4,5-b]pyridine-7-carboximidamide] | 655 nM | –
